Assay results: paper PMC10143845, “Series of Organotin(IV) Compounds with Different Dithiocarbamate Ligands Induced Cytotoxicity, Apoptosis and Cell Cycle Arrest on Jurkat E6.1, T Acute Lymphoblastic Leukemia Cells” (Molecules, 2023)
“Also recorded” adds a separate entry of the source. Read-outs that look alike come from different tables or passages of the source.

Assays:
[1] = test system: Jurkat E6.1 human T acute lymphoblastic leukemia cell line; assay: WST-1 cytotoxicity assay on Jurkat E6.1 cells; details: for Selectivity Index (SI): IC50 non-cancerous cell line (WIL2-NS) / IC50 leukemia cell line (Jurkat E6.1); for IC50: read-out: Value of IC50 Jurkat E6.1; for kind of effect on the cells (cytostatic or cytotoxic): Jurkat E6.1, WST-1, up to 5.0 μM, 24 h
Description: (§1) The Jurkat E6.1 (TIB-152™) and WIL2-NS (CRL-8155™) cell lines were purchased from the American Type Culture Collection. These cells were cultured in Roswell Park Memorial Institute Medium 1640, RPMI-1640 supplemented with 10% Fetal Bovine Serum (FBS) and 1% penicillin-streptomycin to obtain the complete growth medium. The cells were incubated at 37 °C with 5% CO2 (New Brunswick Galaxy 170 S, Hamburg, Germany).
(§2) Jurkat E6.1 and WIL2-NS cell lines were cultured in 75 cm^2 flasks and seeded in 96-well culture plates with a final concentration of 1 × 10^6 cells/mL. The cells were exposed to organotin(IV) dithiocarbamate compounds with the highest concentration of 5.0 μM. Vincristine was used in this study as a positive control with its highest concentration, at 5.0 μM, while untreated cells (cells and complete medium only) were used as the negative control. Serial dilution methods are used to obtain the desired concentration gradient and the cells were then exposed to the compounds overnight (24 h). After the incubation period, the WST-1 solution (Roche, Basel, Switzerland) was added in a ratio of 1:10 to the suspension volume in the wells and incubated for another 4 h. Finally, the cells’ optical density (OD) was measured using an ELISA microplate reader (Multiskan FC, Thermo Scientific, Waltham, MA, USA) at 440 nm wavelength. The data obtained were analyzed using GraphPad Prism software (Dotmatics) to determine the IC50 values.
(§3) The selectivity index is determined by dividing the cytotoxic activity (IC50 value) of each compound on a non-cancerous cell line (WIL2-NS) to a leukemia cell line (Jurkat E6.1) using the following equation:SI = IC50 for non cancerous cell line IC50 for cancerous cell line

[2] = test system: WIL2-NS non-cancerous cells; assay: WST-1 cytotoxicity assay on WIL2-NS cells; type: cell-based; details: read-out: Value of IC50 WIL2-NS
Description: as §1, §2

Jurkat E6.1 cells [3] = assay: Annexin V-FITC/PI apoptosis assay (mode of cell death) by flow cytometry; type: cell-based, human; details: Jurkat E6.1, treated at IC50 concentration, 24 h; for cell population in early apoptotic phase / cell population in late apoptotic phase: mean ± SEM; for total apoptosis population: early + late apoptosis
Description: Apoptosis assay was performed according to the manufacturer’s instructions using Annexin V-FITC/PI staining kit (BD Biosciences, East Rutherford, NJ, USA). The Jurkat E6.1 cells were seeded in a 6-well plate with a final concentration of 5.0 × 10^5 cell/mL. […] After the incubation period, 500 μL of cells were harvested and transferred into a microcentrifuge tube. The sample was centrifuged at 1500 rpm for 5 min at 4 °C (Mikro 200R, Hettich, Kirchlengern, Germany) and the supernatant was discarded, and 500 μL of cold PBS was added to the sample followed by another centrifugation for 5 min, then the supernatant was discarded. Next, 150 μL of Annexin V binding buffer and 5.0 μL of Annexin V-FITC were added to the sample in the dark and then incubated for 15 min at room temperature. After that, 3.0 μL of propidium iodide (PI) was added to the samples. The samples then incubated for another 2 min at room temperature. Finally, 350 μL of Annexin V binding buffer was added to the samples and transferred into Falcon tubes. The samples were then analyzed using a BD FACS Canto II flow cytometer (BD Bioscience, East Rutherford, NJ, USA).

Jurkat E6.1 cells [4] = assay: Cell cycle analysis with RNase/PI stain by flow cytometry; type: cell-based, human; details: Jurkat E6.1, treated at IC50 concentration, 24 h; for cells in G0/G1 phase / cells in G2/M phase / cells in S phase: mean ± SEM
Description: Cell cycle analysis was performed according to the manufacturer’s instructions using PI/RNase Staining Buffer (BD Bioscience, East Rutherford, NJ, USA). For this assay, the Jurkat E6.1 cell line was cultured in 6-well culture plates with a final concentration of 1.0 × 10^6 cells/mL and treated with organotin(IV) dithiocarbamate compounds for 24 h, with vincristine as the positive control. The concentration of each treatment used was based on the IC50 values obtained from the WST-1 assay. After the incubation period, 500 µL of cell suspension was washed twice with cold PBS and fixed overnight with 500 µL of 70% ethanol. The cells were then stained with 500 µL RNase/PI stain and measured using a BD FACS Canto II flow cytometer (BD Bioscience, East Rutherford, NJ, USA). The cell cycle phases were analyzed using the ModFit LT software (Verity Software House).

in vitro = details: human
Description: as §1, §2, §3

Jurkat E6.1 cells [5] = test system: Jurkat E6.1 cells; design: method as in earlier work; details: ref 31 (Kamaludin et al.); cited from earlier work
[6] = WST-1, 24 h exposure, highest concentration 5.0 μM, mean ± SEM, n = 3

Row | SMILES | Selectivity Index (SI) [1] | IC50 [1, 6] | IC50 [2, 6] | cell population in early apoptotic phase (Jurkat E6.1 cells [3]) | cell population in late apoptotic phase (Jurkat E6.1 cells [3]) | total apoptosis population (Jurkat E6.1 cells [3]) | Phases of Cell Cycle Arrest (Jurkat E6.1 cells [4]) | cells in G0/G1 phase (Jurkat E6.1 cells [4]) | cells in G2/M phase (Jurkat E6.1 cells [4]) | cells in S phase (Jurkat E6.1 cells [4]) | kind of effect on the cells (cytostatic or cytotoxic) [1] | Value of IC50 Jurkat E6.1 [1, 6] | viability at 24 h, 0.3 µM (in vitro) | IC50 ([1]; Homo sapiens, Jurkat E6.1, 24 h) | IC50 ([2]; Homo sapiens, WIL2-NS, 24 h) | IC50 (Jurkat E6.1 cells [5])
1 | CC(C)N(C(=S)[S][Sn]([S]C(=S)N(C(C)C)C(C)C)([c]1ccccc1)[c]1ccccc1)C(C)C [ODTC 1, diphenyltin(IV) diisopropyl dithiocarbamate] | 0.96 | 1450 ± 20 nM | 1390 ± 460 nM | 12.23 ± 1.93% | 13.17 ± 1.13% | 25.4% | does not cause cell cycle arrest at any phase; also recorded: Not cell cycle specific | – | – | – | – | – | – | – | – | –
2 | C=CCN(CC=C)C(=S)[S][Sn]([S]C(=S)N(CC=C)CC=C)([c]1ccccc1)[c]1ccccc1 [ODTC 2, diphenyltin(IV) diallyl dithiocarbamate] | 0.50 | 1050 ± 20 nM | 520 ± 140 nM | 17.20 ± 2.69% | 30.07 ± 2.38% | 47.27% | – | 21.63% ± 3.17 | 19.03% ± 0.20 | 59.37% ± 3.07 | – | – | – | – | – | –
3 | CC(C)N(C(=S)[S][Sn]([c]1ccccc1)([c]1ccccc1)[c]1ccccc1)C(C)C [ODTC 3, triphenyltin(IV) diisopropyl dithiocarbamate] | 1.11 | 670 ± 60 nM | 750 ± 70 nM | 59.70 ± 1.96% | 27.80 ± 2.17% | 87.5% | – | 68.37% ± 4.78 | 4.34% ± 0.99 | 27.29% ± 5.12 | – | – | – | – | – | –
4 | C=CCN(CC=C)C(=S)[S][Sn]([c]1ccccc1)([c]1ccccc1)[c]1ccccc1 [ODTC 4, triphenyltin(IV) diallyl dithiocarbamate] | 0.71 | 940 ± 80 nM | 670 ± 140 nM | 49.70 ± 2.84% | 38.63 ± 2.73% | 88.33% | – | 13.22% ± 2.30 | 22.67% ± 3.54 | 64.10% ± 4.46 | – | – | – | – | – | –
5 | CCN(CC)C(=S)[S][Sn]([c]1ccccc1)([c]1ccccc1)[c]1ccccc1 [ODTC 5, triphenyltin(IV) diethyl dithiocarbamate] | 0.86 | 920 ± 50 nM | 790 ± 50 nM | 56.50 ± 1.64% | 26.47 ± 1.23% | 82.97 ± 2.84% | – | 9.84% ± 0.71 | 31.46% ± 2.86 | 58.70% ± 3.37 | – | – | – | – | – | –
6 | CC(C)N(C(=S)[S][Sn]([CH3])([CH3])[S]C(=S)N(C(C)C)C(C)C)C(C)C [ODTC 6, dimethyltin(IV) diisopropyl dithiocarbamate] | – | – | 5000 ± 20 nM | – | – | – | – | – | – | – | cytostatic effect | does not produce IC50 value at the tested range of concentration | – | – | – | –
7 | CCN(CC)C(=S)[S][Sn]([CH3])([CH3])[S]C(=S)N(CC)CC [ODTC 7, dimethyltin(IV) diethyl dithiocarbamate] | 0.15 | 3400 ± 250 nM | 500 ± 20 nM | 13.13 ± 2.62% | 14.93 ± 1.35% | 28.06% | – | 23.41% ± 5.37 | 17.39% ± 4.52 | 57.19% ± 2.89 | – | – | – | – | – | –
8 | CC[C@]1(O)C[C@H]2CN(CCc3c([nH]c4ccccc34)[C@@](C(=O)OC)(c3cc4c(cc3OC)N(C=O)[C@H]3[C@@](O)(C(=O)OC)[C@H](OC(C)=O)[C@]5(CC)C=CCN6CC[C@]43[C@@H]65)C2)C1 [Vincristine (positive control), Vincristine, reference compound] | 0.96 | – | – | 36.07 ± 2.85% | 18.57 ± 1.31% | 54.64% | – | 66.76% ± 1.39 | 8.00% ± 0.00 | 25.24% ± 1.39 | cytostatic effects | – | 40% | 240 ± 20 nM | 230 ± 30 nM | –
9 | COc1cccc2c1C(=O)c1c(O)c3c(c(O)c1C2=O)C[C@@](O)(C(=O)CO)C[C@@H]3O[C@H]1C[C@H](N)[C@H](O)[C@H](C)O1 [doxorubicin] | – | – | – | – | – | – | – | – | – | – | – | – | – | – | – | 100 nM
